These results are taken from patent US20040156869A1, “2-substituted quinazolin-4-ylamine analogues” (Neurogen Corporation, priority 2002, published 2004).

A value given as a limit tells only on which side of the number the result lay.

The term Ki denotes the equilibrium dissociation constant of an inhibitor or competing ligand from its target. Lower therefore signals a stronger hold on the target.

In one assay the target is human capsaicin receptor (VR1) (Homo sapiens, UniProt Q8NER1). The assay is described as follows: Capsaicin receptor binding assay ([3H]RTX competition, VR1-transfected HEK293 membranes).
Chain of human capsaicin receptor (VR1) (Q8NER1 whole entry): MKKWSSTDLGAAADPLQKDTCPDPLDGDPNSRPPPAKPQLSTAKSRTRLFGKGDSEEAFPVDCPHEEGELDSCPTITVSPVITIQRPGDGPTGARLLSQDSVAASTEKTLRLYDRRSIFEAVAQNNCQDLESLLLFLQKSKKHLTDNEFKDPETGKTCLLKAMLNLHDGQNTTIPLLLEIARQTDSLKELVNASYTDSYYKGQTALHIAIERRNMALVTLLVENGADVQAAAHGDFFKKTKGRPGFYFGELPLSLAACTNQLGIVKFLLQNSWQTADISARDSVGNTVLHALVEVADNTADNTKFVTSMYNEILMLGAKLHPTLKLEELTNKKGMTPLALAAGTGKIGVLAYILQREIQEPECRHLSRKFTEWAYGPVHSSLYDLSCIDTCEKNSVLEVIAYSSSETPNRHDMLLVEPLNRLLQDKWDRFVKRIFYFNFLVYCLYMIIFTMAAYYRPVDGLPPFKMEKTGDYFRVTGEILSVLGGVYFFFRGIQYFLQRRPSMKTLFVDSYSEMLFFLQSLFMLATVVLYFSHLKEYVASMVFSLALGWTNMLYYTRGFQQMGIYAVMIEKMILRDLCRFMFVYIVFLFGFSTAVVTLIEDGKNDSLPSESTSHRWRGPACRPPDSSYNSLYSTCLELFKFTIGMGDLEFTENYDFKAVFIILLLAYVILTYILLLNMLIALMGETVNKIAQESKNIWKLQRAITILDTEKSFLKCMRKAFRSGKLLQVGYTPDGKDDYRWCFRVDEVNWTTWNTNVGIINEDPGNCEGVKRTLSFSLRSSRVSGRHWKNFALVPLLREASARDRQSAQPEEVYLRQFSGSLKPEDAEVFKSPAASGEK
Conditions: not given
Consider `CC(C)N(C)Cc1nc(Nc2ccc(S(=O)(=O)N3CCOCC3)cc2)c2ccc(-c3ncccc3C(F)(F)F)cc2n1` [Compound 723, [2-[(Isopropyl-methyl-amino)-methyl]-7-(3-trifluoromethyl-pyridin-2-yl)-quinazolin-4-yl]-[4-(morpholine-4-sulfonyl)-phenyl]-amine], for which the Ki was under 1 µM.

`CCCN(CC)Cc1nc(Nc2ccc(S(=O)(=O)N3CCOCC3)cc2)c2ccc(-c3ncccc3C(F)(F)F)cc2n1` [Compound 724, [2-[(Ethyl-propyl-amino)-methyl]-7-(3-trifluoromethyl-pyridin-2-yl)-quinazolin-4-yl]-[4-(morpholine-4-sulfonyl)-phenyl]-amine] came in with a Ki of under 1 µM.

The compound `CCOCN(COCC)Cc1nc(Nc2ccc(C(F)(F)F)cc2)c2ccc(-c3ncccc3C)cc2n1` [Compound 725, [2-[(Bis-ethoxymethyl-amino)-methyl]-7-(3-methyl-pyridin-2-yl)-quinazolin-4-yl]-(4-trifluoromethyl-phenyl)-amine] yielded a Ki of under 1 µM.

Regarding `CCCN(CCC)Cc1nc(Nc2ccc(C(F)(F)F)cc2)c2ccc(-c3ncccc3C)cc2n1` [Compound 726, [2-Dipropylaminomethyl-7-(3-methyl-pyridin-2-yl)-quinazolin-4-yl]-(4-trifluoromethyl-phenyl)-amine], the Ki is under 1 µM.

The compound `Cc1cccnc1-c1ccc2c(Nc3ccc(C(F)(F)F)cc3)nc(C3CN(C(=O)OC(C)(C)C)C3)nc2n1` [Compound 727, 3-[7-(3-Methyl-pyridin-2-yl)-4-(4-trifluoromethyl-phenylamino)-pyrido[2,3-d]pyrimidin-2-yl]-azetidine-1-carboxylic acid tert-butyl ester] gave a Ki of under 1 µM.

In turn, `O=C(O)C1CCN(Cc2nc(Nc3ccc(C(F)(F)F)cc3)c3ccc(-c4ncccc4C(F)(F)F)cc3n2)CC1` [Compound 728, 1-[4-(4-Trifluoromethyl-phenylamino)-7-(3-trifluoromethyl-pyridin-2-yl)-quinazolin-2-ylmethyl]-piperidine-4-carboxylic acid] yielded a Ki of under 1 µM.

`O=C(O)C1CCCN(Cc2nc(Nc3ccc(C(F)(F)F)cc3)c3ccc(-c4ncccc4C(F)(F)F)cc3n2)C1` (centres unmarked) [Compound 729, 1-[4-(4-Trifluoromethyl-phenylamino)-7-(3-trifluoromethyl-pyridin-2-yl)-quinazolin-2-ylmethyl]-piperidine-3-carboxylic acid] displayed a Ki of under 1 µM.

As for `O=C(O)[C@@H]1CCCN1Cc1nc(Nc2ccc(C(F)(F)F)cc2)c2ccc(-c3ncccc3C(F)(F)F)cc2n1` [Compound 730, (S)-1-[4-(4-Trifluoromethyl-phenylamino)-7-(3-trifluoromethyl-pyridin-2-yl)-quinazolin-2-ylmethyl]-pyrrolidine-2-carboxylic acid], the Ki is under 1 µM.

Compound `Cc1cccnc1-c1ccc2c(Nc3ccc(C(F)(F)F)cc3)nc(CN3CCCC(C)(C)C3)nc2c1` [Compound 731, [2-(3,3-Dimethyl-piperidin-1-ylmethyl)-7-(3-methyl-pyridin-2-yl)-quinazolin-4-yl]-(4-trifluoromethyl-phenyl)-amine] gave a Ki of under 1 µM.

On to `Cc1cccnc1-c1ccc2c(Nc3ccc(C(F)(F)F)cc3)nc(CN3CC[C@@H](O)C3)nc2c1` [Compound 732, (R)-1-[7-(3-Methyl-pyridin-2-yl)-4-(4-trifluoromethyl-phenylamino)-quinazolin-2-ylmethyl]-pyrrolidin-3-ol], for which the Ki is under 1 µM.

In turn, `Cc1cccnc1-c1ccc2c(Nc3ccc(C(F)(F)F)cc3)nc(CN3CC[C@@H](CO)C3)nc2c1` [Compound 733, (R)-{1-[7-(3-Methyl-pyridin-2-yl)-4-(4-trifluoromethyl-phenylamino)-quinazolin-ylmethyl]-pyrrolidin-3-yl}-methanol] came in with a Ki of under 1 µM.

For the compound `Cc1cccnc1-c1ccc2c(Nc3ccc(C(F)(F)F)cc3)nc(CN3CC[C@H](CO)C3)nc2c1` [Compound 734, (S)-{1-[7-(3-Methyl-pyridin-2-yl)-4-(4-trifluoromethyl-phenylamino)-quinazolin-2-ylmethyl]-pyrrolidin-3-yl}-methanol], the Ki was under 1 µM.

The compound `Cc1cccnc1-c1ccc2c(Nc3ccc(C(F)(F)F)cc3)nc(C3CNC3)nc2n1` [Compound 735, [2-Azetidin-3-yl-7-(3-methyl-pyridin-2-yl)-pyrido[2,3-d]pyrimidin-4-yl]-(4-trifluoromethyl-phenyl)-amine] registered an inhibitory constant (Ki) of under 1 µM.

`O=C(O)C1CCCCN1Cc1nc(Nc2ccc(C(F)(F)F)cc2)c2ccc(-c3ncccc3C(F)(F)F)cc2n1` (centres unmarked) [Compound 737, 1-[4-(4-Trifluoromethyl-phenylamino)-7-(3-trifluoromethyl-pyridin-2-yl)-quinazolin-2-ylmethyl]-piperidine-2-carboxylic acid] registered a Ki of under 1 µM.

The compound `Cc1cccnc1-c1ccc2c(Nc3ccc(C(F)(F)F)cc3)nc(CN3C[C@@H](C)O[C@@H](C)C3)nc2n1` [Compound 738, [2-(2,6-Dimethyl-morpholin-4-ylmethyl)-7-(3-methyl-pyridin-2-yl)-pyrido[2,3-d]pyrimidin-4-yl]-(4-trifluoromethyl-phenyl)-amine (cis)] yielded a Ki of under 1 µM.

For the compound `CC1(C)CN(Cc2nc(Nc3ccc(C(F)(F)F)cc3)c3ccc(-c4ncccc4C(F)(F)F)cc3n2)CCO1` [Compound 739, [2-(2,2-Dimethyl-morpholin-4-ylmethyl)-7-(3-trifluoromethyl-pyridin-2-yl)-quinazolin-4-yl]-(4-trifluoromethyl-phenyl)-amine], the Ki was under 1 µM.

Take `CC1(C)CN(Cc2nc(Nc3ccc(C(F)(F)F)cc3)c3ccc(-c4ncccc4Cl)cc3n2)CCO1` [Compound 740, [7-(3-Chloro-pyridin-2-yl)-2-(2,2-dimethyl-morpholin-4-ylmethyl)-quinazolin-4-yl]-(4-trifluoromethyl-phenyl)-amine]: the Ki is under 1 µM.

On to `CC1(C)CN(Cc2nc(Nc3ccc(C4CC4)cc3)c3ccc(-c4ncccc4C(F)(F)F)cc3n2)CCO1` [Compound 741, (4-Cyclopropyl-phenyl)-[2-(2,2-dimethyl-morpholin-4-ylmethyl)-7-(3-trifluoromethyl-pyridin-2-yl)-quinazolin-4-yl]-amine], for which the inhibition constant (Ki) was under 1 µM.

`CC1(C)CN(Cc2nc(Nc3ccc(C(F)(F)F)cc3)c3ncc(-c4ncccc4C(F)(F)F)cc3n2)CCO1` [Compound 742, [2-(2,2-Dimethyl-morpholin-4-ylmethyl)-7-(3-trifluoromethyl-pyridin-2-yl)-pyrido[3,2-d]pyrimidin-4-yl]-(4-trifluoromethyl-phenyl)-amine] returned a Ki of under 1 µM.

`COCCN(CCOC)Cc1nc(Nc2ccc(C(F)(F)F)cc2)c2ccc(-c3ncccc3C)nc2n1` [Compound 743, [2-{[Bis-(2-methoxy-ethyl)-amino]-methyl}-7-(3-methyl-pyridin-2-yl)-pyrido[2,3-d]pyrimidin-4-yl]-(4-trifluoromethyl-phenyl)-amine] registered a Ki of under 1 µM.

Turning to `CC(C)(C)c1ccc(Nc2nc(CN3CCC[C@H]3C(=O)O)nc3cc(-c4ncccc4C(F)(F)F)ccc23)cc1` [Compound 744, (S)-1-[4-(4-tert-Butyl-phenylamino)-7-(3-trifluoromethyl-pyridin-2-yl)-quinazolin-2-ylmethyl]-pyrrolidine-2-carboxylic acid], the Ki was under 1 µM.

In turn, `CC(C)(C)c1ccc(Nc2nc(CN3CCC[C@@H]3C(=O)O)nc3cc(-c4ncccc4C(F)(F)F)ccc23)cc1` [Compound 745, (R)-1-[4-(4-tert-Butyl-phenylamino)-7-(3-trifluoromethyl-pyridin-2-yl)-quinazolin-2-ylmethyl]-pyrrolidine-2-carboxylic acid] gave a Ki of under 1 µM.

`Cc1cccnc1-c1ccc2c(Nc3ccc(C(F)(F)F)cc3)nc(CN3CCCC(C)(C)C3)nc2n1` [Compound 746, [2-(3,3-Dimethyl-piperidin-1-ylmethyl)-7-(3-methyl-pyridin-2-yl)-pyrido[2,3-d]pyrimidin-4-yl]-(4-trifluoromethyl-phenyl)-amine] returned a Ki of under 1 µM.

`Cc1cccnc1-c1ccc2c(Nc3ccc(C(F)(F)F)cc3)nc(CN3CCC[C@H]3C(=O)O)nc2n1` [Compound 747, (S)-1-[7-(3-Methyl-pyridin-2-yl)-4-(4-trifluoromethyl-phenylamino)-pyrido[2,3-d]pyrimidin-2-ylmethyl]-pyrrolidine-2-carboxylic acid] gave an inhibition constant Ki of under 1 µM.

As to `C[C@@H]1CN(Cc2nc(Nc3ccc(C(F)(F)F)cc3)c3ccc(-c4ncccc4C(F)(F)F)nc3n2)C[C@H](C)O1` [Compound 748, [2-(2,6-Dimethyl-morpholin-4-ylmethyl)-7-(3-trifluoromethyl-pyridin-2-yl)-pyrido[2,3-d]pyrimidin-4-yl]-(4-trifluoromethyl-phenyl)-amine (cis)], the Ki is under 1 µM.

The compound `COCCN(CCOC)Cc1nc(Nc2ccc(C(F)(F)F)cc2)c2ccc(-c3ncccc3C(F)(F)F)nc2n1` [Compound 749, [2-{[Bis-(2-methoxy-ethyl)-amino]-methyl}-7-(3-trifluoromethyl-pyridin-2-yl)-pyrido[2,3-d]pyrimidin-4-yl]-(4-trifluoromethyl-phenyl)-amine] gave a Ki of under 1 µM.

`CC1(C)CCCN(Cc2nc(Nc3ccc(C(F)(F)F)cc3)c3ccc(-c4ncccc4C(F)(F)F)nc3n2)C1` [Compound 750, [2-(3,3-Dimethyl-piperidin-1-ylmethyl)-7-(3-trifluoromethyl-pyridin-2-yl)-pyrido[2,3-d]pyrimidin-4-yl]-(4-trifluoromethyl-phenyl)-amine] had a Ki of under 1 µM.

`O=C(O)[C@@H]1CCCN1Cc1nc(Nc2ccc(C(F)(F)F)cc2)c2ccc(-c3ncccc3C(F)(F)F)nc2n1` [Compound 751, (S)-1-[4-(4-Trifluoromethyl-phenylamino)-7-(3-trifluoromethyl-pyridin-2-yl)-pyrido[2,3-d]pyrimidin-2-ylmethyl]-pyrrolidine-2-carboxylic acid] displayed a Ki of under 1 µM.

The assay is the same for the next values; noted with them: Table III; * = Ki 1 micromolar or less.
For the compound `CCOC(=O)C1CCN(CCc2nc(Nc3ccc(C(F)(F)F)cc3)c3ccc(-c4ncccc4C(F)(F)F)cc3n2)CC1` [Compound 736, 1-{2-[4-(4-Trifluoromethyl-phenylamino)-7-(3-trifluoromethyl-pyridin-2-yl)-quinazolin-2-yl]-ethyl}-piperidine-4-carboxylic acid ethyl ester], the Ki was under 1 µM.
